Reference: US10538555B2, “Macrocyclic inhibitors of the PD-1/PD-L1 and CD80(B7-1)/PD-L1 protein/protein interactions” (BRISTOL-MYERS SQUIBB COMPANY, priority 2014, dated 2020)
Where two headings read alike, the source gives them in different places. Where a SMILES comes first, the peptide text is derived from it. Bridges are numbered along the chain shown (N, C = ends). [ ]: non-standard residue; d: D form. Phe(3,4-F2) = N[C@@H](Cc1ccc(F)c(F)c1)C(=O)O; d(cisHyp) = O=C(O)[C@H]1C[C@@H](O)CN1; NMeF = CN[C@@H](Cc1ccccc1)C(=O)O; dNMeF = CN[C@H](Cc1ccccc1)C(=O)O; NMeNle = CCCC[C@H](NC)C(=O)O; Orn = NCCC[C@H](N)C(=O)O; Dab = NCC[C@H](N)C(=O)O

Biological target: T1, Human PD-L1/PD-1 (Homo sapiens, UniProt Q9NZQ7)
T1 construct: TVMV protease cleavage site (C); made in house; host or cells: HEK293T cells
T1 sequence (Q9NZQ7 with tags, fused parts or gaps): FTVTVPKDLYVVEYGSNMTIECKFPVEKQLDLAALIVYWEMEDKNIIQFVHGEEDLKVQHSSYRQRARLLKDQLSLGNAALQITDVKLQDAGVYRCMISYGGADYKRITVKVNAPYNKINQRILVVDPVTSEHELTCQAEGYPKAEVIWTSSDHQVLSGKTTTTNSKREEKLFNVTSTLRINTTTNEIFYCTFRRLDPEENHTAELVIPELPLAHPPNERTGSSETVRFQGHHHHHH
Test: HTRF Human PD-L1/PD-1 binding assay (PD-1-Ig/PD-L1-His)
Settings: PD-L1-His 10 nM, PD-1-Ig 20 nM
In short: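 Competition of macrocyclic peptides for PD-1/PD-L1 binding measured by HTRF in dPBS containing 0.1% BSA and 0.05% Tween-20. Compound and PD-L1-His (10 nM final) incubated 15 min before PD-1-Ig (20 nM final) and a further 15 min.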

[1] = class symbol, read-out: HTRF Human PD-L1/PD-1 Binding Assay IC50 Range
[2] = read-out: HTRF Human PD-L1/PD-1 Binding Assay IC50

`CCCC[C@H]1C(=O)N2C[C@H](O)C[C@@H]2C(=O)N[C@@H](CC(=O)O)C(=O)N[C@@H](C(C)C)C(=O)N(C)[C@H](Cc2ccccc2)C(=O)N[C@@H](CC(=O)O)C(=O)N2C[C@H](O)C[C@@H]2C(=O)N[C@@H](Cc2c[nH]c3ccccc23)C(=O)N[C@@H](Cc2ccc(O)cc2)C(=O)N[C@@H](CCCN)C(=O)N[C@H](C(=O)NCC(N)=O)CSCC(=O)N[C@@H](Cc2ccc(F)c(F)c2)C(=O)N(C)[C@@H](Cc2ccccc2)C(=O)N1C` [Example 9301] ({CH2CO}-[Phe(3,4-F2)][NMeF][NMeNle][d(cisHyp)]DV[dNMeF]D[d(cisHyp)]WY[Orn]CG-NH2; thioether N-13) showed an IC50 [1] of 1 to 9.9 nM.

Compound `CCCC[C@H]1C(=O)N2C[C@H](O)C[C@@H]2C(=O)N[C@@H](CC(=O)O)C(=O)N[C@@H](C(C)C)C(=O)N(C)[C@@H](Cc2ccccc2)C(=O)N[C@@H](CCC(N)=O)C(=O)N2C[C@H](O)C[C@@H]2C(=O)N[C@@H](Cc2c[nH]c3ccccc23)C(=O)N[C@@H](Cc2ccc(O)cc2)C(=O)N[C@@H](CCCN)C(=O)N[C@H](C(=O)NCC(N)=O)CSCC(=O)N[C@@H](Cc2ccc(F)c(F)c2)C(=O)N(C)[C@@H](Cc2ccccc2)C(=O)N1C` [Example 9302] ({CH2CO}-[Phe(3,4-F2)][NMeF][NMeNle][d(cisHyp)]DV[NMeF]Q[d(cisHyp)]WY[Orn]CG-NH2; thioether N-13) has an IC50 [1] of 1 to 9.9 nM.

`CCCC[C@H]1C(=O)N2C[C@H](O)C[C@@H]2C(=O)N[C@@H](CC(=O)O)C(=O)N[C@@H](C(C)C)C(=O)N(C)[C@H](Cc2ccccc2)C(=O)N[C@@H](CCC(N)=O)C(=O)N2C[C@H](O)C[C@@H]2C(=O)N[C@@H](Cc2c[nH]c3ccccc23)C(=O)N[C@@H](Cc2ccc(O)cc2)C(=O)N[C@@H](CCCN)C(=O)N[C@H](C(=O)NCC(N)=O)CSCC(=O)N[C@@H](Cc2ccc(F)c(F)c2)C(=O)N(C)[C@@H](Cc2ccccc2)C(=O)N1C` [Example 9303] ({CH2CO}-[Phe(3,4-F2)][NMeF][NMeNle][d(cisHyp)]DV[dNMeF]Q[d(cisHyp)]WY[Orn]CG-NH2; thioether N-13) was tested, and the IC50 [1] was 1 to 9.9 nM.

`CCCC[C@H]1C(=O)N2C[C@H](O)C[C@@H]2C(=O)N[C@@H](CC(=O)O)C(=O)N[C@@H](C(C)C)C(=O)N(C)[C@@H](Cc2ccccc2)C(=O)N[C@@H](CC(N)=O)C(=O)N2C[C@H](O)C[C@@H]2C(=O)N[C@@H](Cc2c[nH]c3ccccc23)C(=O)N[C@@H](Cc2ccc(O)cc2)C(=O)N[C@@H](CCCN)C(=O)N[C@H](C(=O)NCC(N)=O)CSCC(=O)N[C@@H](Cc2ccc(F)c(F)c2)C(=O)N(C)[C@@H](Cc2ccccc2)C(=O)N1C` [Example 9304] showed an IC50 [2] of 11.7 nM.

`CCCC[C@H]1C(=O)N2C[C@H](O)C[C@@H]2C(=O)N[C@@H](CC(=O)O)C(=O)N[C@@H](C(C)C)C(=O)N(C)[C@@H](Cc2ccccc2)C(=O)N[C@@H](CCCCN)C(=O)N2C[C@H](O)C[C@@H]2C(=O)N[C@@H](Cc2c[nH]c3ccccc23)C(=O)N[C@@H](Cc2ccc(O)cc2)C(=O)N[C@@H](CCCN)C(=O)N[C@H](C(=O)NCC(N)=O)CSCC(=O)N[C@@H](Cc2ccc(F)c(F)c2)C(=O)N(C)[C@@H](Cc2ccccc2)C(=O)N1C` [Example 9306] ({CH2CO}-[Phe(3,4-F2)][NMeF][NMeNle][d(cisHyp)]DV[NMeF]K[d(cisHyp)]WY[Orn]CG-NH2; thioether N-13) gave an IC50 [1] of 1 to 9.9 nM.

For `CCCC[C@H]1C(=O)N2C[C@H](O)C[C@@H]2C(=O)N[C@@H](CC(=O)O)C(=O)N[C@@H](C(C)C)C(=O)N(C)[C@H](Cc2ccccc2)C(=O)N[C@@H](CCCCN)C(=O)N2C[C@H](O)C[C@@H]2C(=O)N[C@@H](Cc2c[nH]c3ccccc23)C(=O)N[C@@H](Cc2ccc(O)cc2)C(=O)N[C@@H](CCCN)C(=O)N[C@H](C(=O)NCC(N)=O)CSCC(=O)N[C@@H](Cc2ccc(F)c(F)c2)C(=O)N(C)[C@@H](Cc2ccccc2)C(=O)N1C` [Example 9307] ({CH2CO}-[Phe(3,4-F2)][NMeF][NMeNle][d(cisHyp)]DV[dNMeF]K[d(cisHyp)]WY[Orn]CG-NH2; thioether N-13), the IC50 [1] was 1 to 9.9 nM.

Compound `CCCC[C@H]1C(=O)N2C[C@H](O)C[C@@H]2C(=O)N[C@@H](CC(=O)O)C(=O)N[C@@H](C(C)C)C(=O)N(C)[C@@H](Cc2ccccc2)C(=O)N[C@@H](CCCN)C(=O)N2C[C@H](O)C[C@@H]2C(=O)N[C@@H](Cc2c[nH]c3ccccc23)C(=O)N[C@@H](Cc2ccc(O)cc2)C(=O)N[C@@H](CCCN)C(=O)N[C@H](C(=O)NCC(N)=O)CSCC(=O)N[C@@H](Cc2ccc(F)c(F)c2)C(=O)N(C)[C@@H](Cc2ccccc2)C(=O)N1C` [Example 9308] ({CH2CO}-[Phe(3,4-F2)][NMeF][NMeNle][d(cisHyp)]DV[NMeF][Orn][d(cisHyp)]WY[Orn]CG-NH2; thioether N-13) has an IC50 [1] of 1 to 9.9 nM.

Work on `CCCC[C@H]1C(=O)N2C[C@H](O)C[C@@H]2C(=O)N[C@@H](CC(=O)O)C(=O)N[C@@H](C(C)C)C(=O)N(C)[C@H](Cc2ccccc2)C(=O)N[C@@H](CCCN)C(=O)N2C[C@H](O)C[C@@H]2C(=O)N[C@@H](Cc2c[nH]c3ccccc23)C(=O)N[C@@H](Cc2ccc(O)cc2)C(=O)N[C@@H](CCCN)C(=O)N[C@H](C(=O)NCC(N)=O)CSCC(=O)N[C@@H](Cc2ccc(F)c(F)c2)C(=O)N(C)[C@@H](Cc2ccccc2)C(=O)N1C` [Example 9309] ({CH2CO}-[Phe(3,4-F2)][NMeF][NMeNle][d(cisHyp)]DV[dNMeF][Orn][d(cisHyp)]WY[Orn]CG-NH2; thioether N-13) yielded an IC50 [1] of 1 to 9.9 nM.

In the case of `CCCC[C@H]1C(=O)N2C[C@H](O)C[C@@H]2C(=O)N[C@@H](CC(=O)O)C(=O)N[C@@H](C(C)C)C(=O)N(C)[C@@H](Cc2ccccc2)C(=O)N[C@@H](CCN)C(=O)N2C[C@H](O)C[C@@H]2C(=O)N[C@@H](Cc2c[nH]c3ccccc23)C(=O)N[C@@H](Cc2ccc(O)cc2)C(=O)N[C@@H](CCCN)C(=O)N[C@H](C(=O)NCC(N)=O)CSCC(=O)N[C@@H](Cc2ccc(F)c(F)c2)C(=O)N(C)[C@@H](Cc2ccccc2)C(=O)N1C` [Example 9310] ({CH2CO}-[Phe(3,4-F2)][NMeF][NMeNle][d(cisHyp)]DV[NMeF][Dab][d(cisHyp)]WY[Orn]CG-NH2; thioether N-13), the IC50 [1] is reported as 1 to 9.9 nM.

Work on `CCCC[C@H]1C(=O)N2C[C@H](O)C[C@@H]2C(=O)N[C@@H](CC(=O)O)C(=O)N[C@@H](C(C)C)C(=O)N(C)[C@H](Cc2ccccc2)C(=O)N[C@@H](CCN)C(=O)N2C[C@H](O)C[C@@H]2C(=O)N[C@@H](Cc2c[nH]c3ccccc23)C(=O)N[C@@H](Cc2ccc(O)cc2)C(=O)N[C@@H](CCCN)C(=O)N[C@H](C(=O)NCC(N)=O)CSCC(=O)N[C@@H](Cc2ccc(F)c(F)c2)C(=O)N(C)[C@@H](Cc2ccccc2)C(=O)N1C` [Example 9311] ({CH2CO}-[Phe(3,4-F2)][NMeF][NMeNle][d(cisHyp)]DV[dNMeF][Dab][d(cisHyp)]WY[Orn]CG-NH2; thioether N-13) yielded an IC50 [1] of 1 to 9.9 nM.

`CCCC[C@H]1C(=O)N2C[C@H](O)C[C@@H]2C(=O)N[C@@H](CC(=O)O)C(=O)N[C@@H](C(C)C)C(=O)N(C)[C@@H](Cc2ccccc2)C(=O)N[C@@H](CCC(=O)O)C(=O)N2C[C@H](O)C[C@@H]2C(=O)N[C@@H](Cc2c[nH]c3ccccc23)C(=O)N[C@@H](Cc2ccc(O)cc2)C(=O)N[C@@H](CCC(=O)O)C(=O)N[C@H](C(=O)NCC(N)=O)CSCC(=O)N[C@@H](Cc2ccc(F)c(F)c2)C(=O)N(C)[C@@H](Cc2ccccc2)C(=O)N1C` [Example 9312] ({CH2CO}-[Phe(3,4-F2)][NMeF][NMeNle][d(cisHyp)]DV[NMeF]E[d(cisHyp)]WYECG-NH2; thioether N-13) showed an IC50 [1] of 10 to 99.9 nM.

With `CCCC[C@H]1C(=O)N2C[C@H](O)C[C@@H]2C(=O)N[C@@H](CC(=O)O)C(=O)N[C@@H](C(C)C)C(=O)N(C)[C@H](Cc2ccccc2)C(=O)N[C@@H](CCC(=O)O)C(=O)N2C[C@H](O)C[C@@H]2C(=O)N[C@@H](Cc2c[nH]c3ccccc23)C(=O)N[C@@H](Cc2ccc(O)cc2)C(=O)N[C@@H](CCC(=O)O)C(=O)N[C@H](C(=O)NCC(N)=O)CSCC(=O)N[C@@H](Cc2ccc(F)c(F)c2)C(=O)N(C)[C@@H](Cc2ccccc2)C(=O)N1C` [Example 9313] ({CH2CO}-[Phe(3,4-F2)][NMeF][NMeNle][d(cisHyp)]DV[dNMeF]E[d(cisHyp)]WYECG-NH2; thioether N-13) the IC50 [2] was 2.7 nM.

Compound `CCCC[C@H]1C(=O)N2C[C@H](O)C[C@@H]2C(=O)N[C@@H](CC(=O)O)C(=O)N[C@@H](C(C)C)C(=O)N(C)[C@@H](Cc2ccccc2)C(=O)N[C@@H](CC(=O)O)C(=O)N2C[C@H](O)C[C@@H]2C(=O)N[C@@H](Cc2c[nH]c3ccccc23)C(=O)N[C@@H](Cc2ccc(O)cc2)C(=O)N[C@@H](CCC(=O)O)C(=O)N[C@H](C(=O)NCC(N)=O)CSCC(=O)N[C@@H](Cc2ccc(F)c(F)c2)C(=O)N(C)[C@@H](Cc2ccccc2)C(=O)N1C` [Example 9314] ({CH2CO}-[Phe(3,4-F2)][NMeF][NMeNle][d(cisHyp)]DV[NMeF]D[d(cisHyp)]WYECG-NH2; thioether N-13) has an IC50 [1] of 1 to 9.9 nM.

Compound `CCCC[C@H]1C(=O)N2C[C@H](O)C[C@@H]2C(=O)N[C@@H](CC(=O)O)C(=O)N[C@@H](C(C)C)C(=O)N(C)[C@@H](Cc2ccccc2)C(=O)N[C@@H](CCC(N)=O)C(=O)N2C[C@H](O)C[C@@H]2C(=O)N[C@@H](Cc2c[nH]c3ccccc23)C(=O)N[C@@H](Cc2ccc(O)cc2)C(=O)N[C@@H](CCC(=O)O)C(=O)N[C@H](C(=O)NCC(N)=O)CSCC(=O)N[C@@H](Cc2ccc(F)c(F)c2)C(=O)N(C)[C@@H](Cc2ccccc2)C(=O)N1C` [Example 9315] ({CH2CO}-[Phe(3,4-F2)][NMeF][NMeNle][d(cisHyp)]DV[NMeF]Q[d(cisHyp)]WYECG-NH2; thioether N-13) has an IC50 [1] of 10 to 99.9 nM.
